“And” between values parts separate entries of the source, which are not always exact repeats. Equal values may be shown once.

As a reminder, the ED50 is the dose at which the effect has come halfway, by size or by number of responders.

For one test, the system named is encephalomyocarditis (EMC) virus. Description: Antiviral activity in mice challenged with lethal dose of encephalomyocarditis (EMC) virus (survival, relative survival, ED50). Type of test: in vivo, female albino mice. Conditions: Mus musculus, ip, 240 h; as mg. dihydrochloride salt; i.p. 18-24 h before EMC virus challenge; day 10; read-out: ED50. The protocol:
The antiviral activity of the compounds of formula I is determined by the following procedure. The test compound is administered to mice by the intraperitoneal route eighteen to twenty-four hours prior to challenging them with a lethal dose of encephalomyocarditis (EMC) virus. The survival rate is determined ten days after challenge and an ED50 [dosage level (mg of compound/kg body weight) required to obtain a fifty percent survival rate] calculated. The procedure in which the drug is given eighteen to twenty-four hours before, and at a distinctly different site from, virus injection is designed to eliminate local effects between drug and virus and identify only those compounds which produce a systemic antiviral response.
Three groups of ten female albino mice (20-25 g. body weight) were given single 0.5 ml. intraperitoneal injections containing dosage levels of 1.5, 5, and 15 mg. of the named compound/kg. body weight, respectively. A fourth control group was given no such injection. Eighteen to twenty-four hours later all four groups were challenged with a 0.2 ml. subcutaneous injection containing 20-30 times the LD50, the dosage level causing a 50% death rate in ten days, of encephalomyocarditis (EMC) virus. The following survival data were recorded for the following ten days:
Antiviral activity is expressed as the relative survival (Sr) in experimental groups compared to the controls on the tenth day after challenge. Sr is defined by the formula [formula] wherein Sr = relative survival […]
Sx = percent survival after ten days in experimental group xi = number of survivors on the ith day in experimental group ei = number of survivors on the ith day in control group
The ED50 [dosage level (mg. of compound/kg. body weight) required to obtain a fifty percent survival rate] is determined graphically by plotting Sr (ordinate) vs. 1n dosage level (abscissa) and then fitting the points with a line of predetermined slope by least squares. The dosage level at which this fitted line has an ordinate of 50 is equivalent to the ED50.
In like manner to that described in Example 113 the antiviral activity was determined for the compounds listed below.
On to `CCCCCCCCCCCCCCCCN(CCCCCCCCCCCCCCCC)Cc1cccc(C(=N)N)c1` [Example 2, m-[N,N-Di-(n-hexadecyl)aminomethyl]-benzamidine], for which the ED50 worked out at 4.7 mg/kg.
On the same count and under the same terms, the same measure for `CCCCCCCCCCCCCCCCN(CCCCCCCCCCCCCCCC)Cc1cccc(C(=N)NC(=O)C(=O)O)c1` [Example 4, m-[N,N-Di(n-hexadecyl)aminomethyl]-N-oxoacetic acid-benzamidine]: 9.9 mg/kg; for `CCCCCCCCCCCCCCCCN(CCCCCCCCCCCCCCCC)Cc1cccc(C(=N)Nc2ccc(OC)cc2)c1` [Example 6, m-[N,N-Di(n-hexadecyl)aminomethyl]-N-(p-methoxyphenyl)-benzamidine]: 5.3 mg/kg.
For the compound `CCCCCCCCCCCCCCCCN(CCCCCCCCCCCCCCCC)Cc1cccc(C(=N)Nc2ccccc2)c1` [Example 7], the ED50 worked out at 12.3 mg/kg.
As to `CCCCCCCCCCCCCCCCN(CCCCCCCCCCCCCCCC)Cc1cccc(C(=N)Nc2ccc(Cl)cc2)c1` [Example 8], the ED50 worked out at 16 mg/kg.
On to `CCCCCCCCCCCCCCCCN(CCCCCCCCCCCCCCCC)Cc1cccc(C(=N)Nc2ccc(C)cc2)c1` [Example 9], for which the ED50 is 7.7 mg/kg.
Still for that read-out and setting: the same measure for `CCCCCCCCCCCCCCCCN(CCCCCCCCCCCCCCCC)Cc1cccc(C(=N)Nc2ccccn2)c1` [Example 10]: 49.3 mg/kg; for `CCCCCCCCCCCCCCCCN(CCCCCCCCCCCCCCCC)Cc1cccc(C(=N)Nc2ccc(Cl)cc2Cl)c1` [Example 11]: 35.7 mg/kg; for `CCCCCCCCCCCCCCCCN(CCCCCCCCCCCCCCCC)Cc1cccc(C(=N)Nc2ccc(O)cc2)c1` [Example 12]: 4.9 mg/kg.
For the compound `CCCCCCCCCCCCCCCCN(CCCCCCCCCCCCCCCC)Cc1cccc(C(=N)Nc2cccc([N+](=O)[O-])c2)c1` [Example 13], the 50% effective dose (ED50) amounted to 21.6 mg/kg.
Regarding `CCCCCCCCCCCCCCCCN(CCCCCCCCCCCCCCCC)Cc1cccc(C(=N)Nc2ccc(N(C)C)cc2)c1` [Example 14], the ED50 came to 8 mg/kg.
On the same count and under the same terms, with `CCCCCCCCCCCCCCCCN(CCCCCCCCCCCCCCCC)Cc1cccc(C(=N)Nc2ccc(F)cc2)c1` [Example 15] the figure was 38 mg/kg.
For `CCCCCCCCCCCCCCCCN(CCCCCCCCCCCCCCCC)Cc1cccc(C(=N)Nc2ccc(S(N)(=O)=O)cc2)c1` [Example 16], the ED50 was found to be 7 mg/kg.
On the same count and under the same terms, the same measure for `CCCCCCCCCCCCCCCCN(CCCCCCCCCCCCCCCC)Cc1cccc(C(=N)Nc2ncccn2)c1` [Example 17]: 12.9 mg/kg; for `CCCCCCCCCCCCCCCCN(CCCCCCCCCCCCCCCC)Cc1cccc(C(=N)Nc2ccc(OCC)cc2)c1` [Example 18]: 17.9 mg/kg; for `CCCCCCCCCCCCCCCCN(CCCCCCCCCCCCCCCC)Cc1cccc(C(=N)Nc2ccc(S(C)(=O)=O)cc2)c1` [Example 19]: 8.9 mg/kg.
For the compound `CCCCCCCCCCCCCCCCN(CCCCCCCCCCCCCCCC)Cc1cccc(C(=N)NC2CCCC2)c1` [Example 20, m-[N,N-Di(n-hexadecyl)aminomethyl]-N-cyclopentyl-benzamidine], the ED50 stood at 27.3 mg/kg.
Consider `CCCCCCCCCCCCCCCCN(CCCCCCCCCCCCCCCC)Cc1cccc(C(=N)Nc2nc(C)cs2)c1` [Example 21], for which the ED50 is 47.5 mg/kg.
As for `CCCCCCCCCCCCCCCCN(CCCCCCCCCCCCCCCC)Cc1cccc(C(=N)NCc2ccccc2)c1` [Example 22], the ED50 amounted to 7.8 mg/kg.
Take `CCCCCCCCCCCCCCCCN(CCCCCCCCCCCCCCCC)Cc1cccc(C(=N)NN(C)C)c1` [Example 23, m-[N,N-di(n-hexadecyl)aminomethyl]-N-dimethylamino-benzamidine]: the ED50 came out at 5 mg/kg.
On to `CCCCCCCCCCCCCCCCN(CCCCCCCCCCCCCCCC)Cc1cccc(C(=N)NC(C)C)c1` [Example 25, m-[N,N-di(n-hexadecyl)aminomethyl]-N-(2-propyl)-benzamidine], for which the ED50 is 2.8 mg/kg.
With `CCCCCCCCCCCCCCCCN(CCCCCCCCCCCCCCCC)Cc1cccc(C(=N)NCC)c1` [Example 26], the median effective dose (ED50) was determined as 7.6 mg/kg.
For the compound `CCCCCCCCCCCCCCCCN(CCCCCCCCCCCCCCCC)Cc1cccc(C(=N)NC)c1` [Example 27, m-[N,N-di(n-hexadecyl)aminomethyl]-N-methyl-benzamidine], the ED50 stood at 5.7 mg/kg.
On to `CCCCCCCCCCCCCCCCN(CCCCCCCCCCCCCCCC)Cc1cccc(C(=N)NCC(F)(F)F)c1` [Example 28, m-[N,N-Di(n-hexadecyl)aminomethyl]-N-(2,2,2-trifluoroethyl)-benzamidine], for which the ED50 is 3.8 mg/kg.
As for `CCCCCCCCCCCCCCCCN(CCCCCCCCCCCCCCCC)Cc1cccc(C(=N)NCC2CC2)c1` [Example 29], the ED50 turned out to be 6.9 mg/kg.
For `CCCCCCCCCCCCCCCCN(CCCCCCCCCCCCCCCC)Cc1cccc(C(=N)Nc2ccc(O)c(C)c2)c1` [Example 30], the ED50 is 7.7 mg/kg.
Same read-out and setting: with `CCCCCCCCCCCCCCCCN(CCCCCCCCCCCCCCCC)Cc1cccc(C(=N)NCCc2cnc[nH]2)c1` [Example 31] the figure was 11.7 mg/kg.
Turning to `CCCCCCCCCCCCCCCCN(CCCCCCCCCCCCCCCC)Cc1cccc(C(=N)Nc2ccc([N+](C)(C)C)cc2)c1` [Example 32], the ED50 was 7.4 mg/kg.
Consider `CCCCCCCCCCCCCCCCN(CCCCCCCCCCCCCCCC)Cc1cccc(C(=N)Nc2ccc(O)cc2O)c1` [Example 33], for which the ED50 came to 37.2 mg/kg.

Staying with this test, now noted: Mus musculus, ip, 240 h; as mg. free base (Example 115); i.p. 18-24 h before EMC virus challenge; day 10; read-out: ED50.
For the compound `CCCCCCCCCCCCCCCCN(CCCCCCCCCCCCCCCC)Cc1cccc(C(=N)NCCCS(=O)(=O)O)c1` [Example 3, m-[N,N-Di(n-hexadecyl)aminomethyl]-N-(n-propane)sulfonic acid-benzamidine], the ED50 is 8 mg/kg.

Still in this test, the particulars now being: Mus musculus, ip, 240 h; i.p. 18-24 h before s.c. EMC virus challenge; graphical, day 10; read-out: ED50 (dosage level required to obtain a fifty percent survival rate).
For `C=CCNC(=N)c1cccc(CN(CCCCCCCCCCCCCCCC)CCCCCCCCCCCCCCCC)c1` [Example 24, m-[N,N-di(n-hexadecyl)aminomethyl]-N-allyl-benzamidine], the ED50 came to 4.7 mg/kg.

The same test, now with this note: mouse, in vivo, ip.
Regarding `C=CCNC(=N)c1cccc(CN(CCCCCCCCCCCCCCCC)CCCCCCCCCCCCCCCC)c1` [Example 24, m-[N,N-di(n-hexadecyl)aminomethyl]-N-allyl-benzamidine], the “Number of Survivors on Day 0” value came to 10, the “Number of Survivors on Day 1” value was determined as 10, the “Number of Survivors on Day 2” value was 10 and the “Number of Survivors on Day 3” value is listed as 10. Moreover, the “Number of Survivors on Day 4” value was 9 and 10; the “Number of Survivors on Day 5” value is 8 and 6 and 5; the “Number of Survivors on Day 6” value was 8 and 6 and 4.

The next test concerns circulating interferon.
Assay: not given
Conditions: mouse, in vivo, ip. Also on record: species or system female Swiss mice.
Turning to `CCCCCCCCCCCCCCCCN(CCCCCCCCCCCCCCCC)Cc1cccc(C(=N)Nc2ccc(O)c(C)c2)c1` [Example 30], the “Plasma Interferon Levels” value was 66 units/ml. and 87 units/ml. and 61 units/ml. and 64 units/ml.
